Test results taken from patent US6552014B2, “Methods of inhibiting platelet activation with selective serotonin reuptake inhibitors” (HeartDrug Research, L.L.C., priority 1999, dated 2003).

Experiments:
[1] = system: platelets; experiment: Platelet aggregation in platelet rich plasma (ADP or collagen); assay type: cell-based, human; conditions: for platelet aggregation in PRP (FIGS. 5 and 6), in words: post-coronary angioplasty patient, activated with ADP or collagen
Method: Trisodium citrate (3.8%) and whole blood is immediately mixed in a 1:9 ratio, and then centrifuged at 1200 g for 2.5 minutes, to obtain platelet-rich plasma (PRP), which is kept at room temperature for use within 1 hour for platelet aggregation studies. Platelet count is determined in each PRP sample with a Coulter Counter ZM (Coulter Co., Hialeah, Fla.). Platelet numbers are adjusted to 3.50×10^8/ml for aggregation with homologous platelet-poor plasma. PRP and whole blood aggregation tests are performed simultaneously. Whole blood is diluted 1.1 with the 0.5 ml PBS, and then swirled gently to mix . The cuvette with the stirring bar is placed in the incubation well and allowed to warm to 37° C. for 5 minutes. Then the sample are transferred to the assay well. An electrode is placed in the sample cuvette. Platelet aggregation is stimulated with 5 μM ADP, 1 μg/ml collagen, and 0.75 mM arachidonic acid. All agonists are obtained from Chronolog Corporation (Hawertown, Pa.). Platelet aggregation studies are performed using a Chrono-Log Whole Blood Lumi-Aggregometer (model 560 -Ca). Platelet aggregability are expressed as the percentage of light transmittance change from baseline using platelet-poor plasma as a reference at the end of recording time for plasma samples, or as a change in electrical impedance for whole blood samples. Aggregation curves are recorded for 4 minutes and analyzed according to internationally established standards using Aggrolinkg® software.

[2] = system: platelets; experiment: PFA-100 closure time, collagen/ADP cartridge; assay type: cell-based, human; conditions: whole blood from a healthy volunteer, increasing concentrations
From the text: A Platelet-Function Analyzer referred to as PFA-100® (Dade Behring, Deerfield Ill.) was used. The PFA-100® is a high shear-inducing analyzer that simulates primary hemostasis after injury to a small vessel under flow conditions. The PFA-100® system measures the time required for a patient's blood sample to form a“platelet plug” in the first phase of blood clot formation. That time interval, which normally ranges from one to three minutes, is called “closure time.” The device provides a constant negative pressure that aspirates whole blood which comes into contact with the collagen coated membrane and then passes through the aperture. The time required to obtain occlusion of the aperture is digitally recorded.
The PFA-100® system permits detection of platelet dysfunction during primary hemostasis, the first phase of hemostasis or coagulation. The system consists of a microprocessor-controlled instrument and disposable test cartridges that measure how well a patient's platelets adhere and aggregate to form a platelet plug.
An in vitro system for the detection of platelet dysfunction, PFA-100™, has been developed. It provides a quantitative measure of platelet function in anticoagulated whole blood. The system comprises a microprocessor-controlled instrument and a disposable test cartridge containing a biologically active membrane. […]

SMILES	percent of platelet aggregation (FIGS. 2 and 3), in words ([1]; PRP, healthy volunteer, induced with ADP or collagen, sertraline 18.1, 44.7 or 85.3 ng/ml)	platelet aggregation in PRP (FIGS. 5 and 6), in words ([1]; PRP)	ADP-, and collagen-induced platelet aggregation in plasma (in vitro), in words ([1]; healthy controls and patients with coronary artery disease, including those on aspirin)	closure time (time for a platelet plug to form) (FIG. 11), in words [2]
CN[C@H]1CC[C@@H](c2ccc(Cl)c(Cl)c2)c2ccccc21 [sertraline]	decreases with increasing amounts of sertraline	decrease in platelet aggregation	Dose-dependent inhibition	decrease in the time
N[C@H]1CC[C@@H](c2ccc(Cl)c(Cl)c2)c2ccccc21 [Desmethyl sertraline, N-desmethylsertraline]		decrease in platelet aggregation		decrease in the time
